Patent US9751869B2, “LXR modulators” (BRISTOL-MYERS SQUIBB COMPANY, priority 2013, dated 2017)

Target: T1, LXRβ (Homo sapiens, UniProt P55055)
T1 construct: Co-transfection expression plasmids, comprising full-length LXRα (pCMX-h LXRα or LXRβ (pCMX-hLXRβ)); expressed in transfected cells; host or cells: CV-1 African green monkey kidney cells, transient transfection with pCMX-hLXRβ
T1 sequence (P55055 1-460): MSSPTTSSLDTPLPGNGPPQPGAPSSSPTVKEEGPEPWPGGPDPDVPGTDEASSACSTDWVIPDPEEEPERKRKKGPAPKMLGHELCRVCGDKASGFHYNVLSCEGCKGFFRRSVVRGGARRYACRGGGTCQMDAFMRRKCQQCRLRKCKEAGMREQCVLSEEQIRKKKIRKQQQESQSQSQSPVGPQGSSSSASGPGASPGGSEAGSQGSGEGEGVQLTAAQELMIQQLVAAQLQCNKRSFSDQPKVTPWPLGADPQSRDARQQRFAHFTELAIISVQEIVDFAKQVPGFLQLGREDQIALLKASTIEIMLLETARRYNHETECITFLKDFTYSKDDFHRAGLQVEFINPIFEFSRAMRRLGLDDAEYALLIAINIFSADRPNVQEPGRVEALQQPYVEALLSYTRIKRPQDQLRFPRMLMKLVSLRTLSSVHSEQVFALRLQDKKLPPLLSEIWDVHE
T1 sequence (P19793 1-462 partner): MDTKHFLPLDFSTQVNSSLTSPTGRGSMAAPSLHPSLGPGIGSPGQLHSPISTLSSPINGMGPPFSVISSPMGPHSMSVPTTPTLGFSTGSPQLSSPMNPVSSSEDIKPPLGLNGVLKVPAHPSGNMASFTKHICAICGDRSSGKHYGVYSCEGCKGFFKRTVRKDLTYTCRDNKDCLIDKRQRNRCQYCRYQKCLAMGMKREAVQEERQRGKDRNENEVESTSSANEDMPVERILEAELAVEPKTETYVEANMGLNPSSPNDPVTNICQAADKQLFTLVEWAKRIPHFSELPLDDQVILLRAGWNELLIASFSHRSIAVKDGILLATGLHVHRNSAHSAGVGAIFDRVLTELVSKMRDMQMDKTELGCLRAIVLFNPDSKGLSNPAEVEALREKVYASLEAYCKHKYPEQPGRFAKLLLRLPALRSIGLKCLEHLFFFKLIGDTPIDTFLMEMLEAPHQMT
Experiment: LXR/LXRE co-transfection assay (luciferase reporter) in CV-1 cells, LXRβ
Format: cell-based
Settings: for EC50: CV-1 cells transfected with pCMX-hLXRβ and LXREx1-Tk-Luciferase, 20 hours incubation, read-out: LXRbeta agonism EC50; for Emax / LXRbeta % EFFICACY: CV-1 cells, relative to maximum response of high control N-(3-((4-fluorophenyl)-(naphthalene-2-sulfonyl)amino)propyl)-2,2-dimethylpropionamide; for Emax: read-out: LXRbeta % EFFICACY
How it was run: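 CV-1 cells transiently co-transfected with full-length human LXRβ, LXRE-Tk-luciferase reporter and β-galactosidase control, then exposed to compound (≤0.5% DMSO) for 20 h at 37 °C before luminescence read. EC50 from 10-point, half-log dose curves; efficacy relative to the sulfonamide high control, means of 2–3 experiments.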

Row | SMILES | EC50 [nM] | Emax [%] | LXRbeta % EFFICACY [%]
1 | Cc1nc(-c2cc(-c3cccc(S(C)(=O)=O)c3)ccc2-n2ccc(C(F)(F)F)n2)c(-c2cc(F)c(OC(F)F)c(F)c2)o1 [Example 409, 5-(4-(difluoromethoxy)-3,5-difluorophenyl)-2-methyl-4-(3′-(methylsulfonyl)-4-(3-(trifluoromethyl)-1H-pyrazol-1-yl)biphenyl-3-yl)oxazole] | 45 | 69 | 
2 | Cc1nc(-c2ccc3c(c2)OC(F)(F)O3)c(-c2cc(-c3cc(F)c(CO)c(S(C)(=O)=O)c3)ccc2-c2cc(C(C)(C)O)nn2C)o1 [Example 92, 2-(5-(3-(4-(2,2-difluorobenzo[d][1,3]dioxol-5-yl)-2-methyloxazol-5-yl)-3′-fluoro-4′-(hydroxymethyl)-5′-(methylsulfonyl)biphenyl-4-yl)-1-methyl-1H-pyrazol-3-yl)propan-2-ol] | 105 | 38 | 
3 | CC(C)c1nc(-c2ccc(OC(F)(F)F)cc2)c(-c2cc(-c3cc(F)c(CO)c(S(C)(=O)=O)c3)ccc2-n2ccc(C(F)(F)F)n2)o1 [Example 341, (3-fluoro-3′-(2-isopropyl-4-(4-(trifluoromethoxy)phenyl)oxazol-5-yl)-5-(methylsulfonyl)-4′-(3-(trifluoromethyl)-1H-pyrazol-1-yl)biphenyl-4-yl)methanol] | 58 | 76 | 
4 | Cc1nc(-c2ccc(OC(F)F)nc2)c(-c2cc(-c3cc(F)c(CO)c(S(C)(=O)=O)c3)ccc2-n2cc(Cl)c(C(F)(F)F)n2)o1 [Example 426, (4′-(4-chloro-3-(trifluoromethyl)-1H-pyrazol-1-yl)-3′-(4-(6-(difluoromethoxy)pyridin-3-yl)-2-methyloxazol-5-yl)-3-fluoro-5-(methylsulfonyl)-[1,1′-biphenyl]-4-yl) methanol] | 8 | 72 | 
5 | Cc1nc(-c2ccc3c(c2)OC(F)(F)O3)c(-c2cc(-c3cc(F)c(CO)c(S(C)(=O)=O)c3)ccc2-c2cc(-c3cnco3)nn2C)o1 [Example 57, (3′-(4-(2,2-difluorobenzo[d][1,3]dioxol-5-yl)-2-methyloxazol-5-yl)-3-fluoro-4′-(1-methyl-3-(oxazol-5-yl)-1H-pyrazol-5-yl)-5-(methylsulfonyl)-[1,1′-biphenyl]-4-yl)methanol] | 158 | 18 | 
6 | Cn1nc(C(=O)NC(C)(C)C#N)cc1-c1ccc(-c2cccc(S(C)(=O)=O)c2)cc1-n1nncc1-c1ccc(OC(F)(F)F)cc1 [Example 37, N-(1-cyano-1-methylethyl)-1-methyl-5-[3′-(methylsulfonyl)-3-(5-{4-[(trifluoromethyl)oxy]phenyl}-1H-1,2,3-triazol-1-yl)biphenyl-4-yl]-1H-pyrazole-3-carboxamide] | 1560 | 47 | 
7 | Cc1nc(-c2ccc3c(c2)OC(F)(F)O3)c(-c2cc(-c3cc(F)c(CO)c(S(C)(=O)=O)c3)ccc2-c2cc(C(=O)NC(C)(C)C#N)nn2C)o1 [Example 55, N-(2-cyanopropan-2-yl)-5-(3-(4-(2,2-difluorobenzo[d][1,3]dioxol-5-yl)-2-methyloxazol-5-yl)-3′-fluoro-4′-(hydroxymethyl)-5′-(methylsulfonyl)biphenyl-4-yl)-1-methyl-1H-pyrazole-3-carboxamide] | 761 | 24 | 
8 | Cc1nc(-c2ccc3c(c2)OC(F)(F)O3)c(-c2cc(-c3cc(F)c(CO)c(S(C)(=O)=O)c3)ccc2-c2cc(C(F)(F)C(N)=O)nn2C)o1 [Example 74, 2-(5-(3-(4-(2,2-difluorobenzo[d][1,3]dioxol-5-yl)-2-methyloxazol-5-yl)-3′-fluoro-4′-(hydroxymethyl)-5′-(methylsulfonyl)biphenyl-4-yl)-1-methyl-1H-pyrazol-3-yl)-2,2-difluoroacetamide] | 92 | 60 | 
9 | Cc1nc(-c2ccc(OC(F)(F)F)cc2)c(-c2cc(-c3cnc(CO)c(S(C)(=O)=O)c3)ccc2-n2cc(Cl)c(C(F)(F)F)n2)o1 [Example 314, (5-(4-(4-chloro-3-(trifluoromethyl)-1H-pyrazol-1-yl)-3-(2-methyl-4-(4-(trifluoromethoxy)phenyl)oxazol-5-yl)phenyl)-3-(methylsulfonyl)pyridin-2-yl)methanol] | 11 | 68 | 
10 | COc1ncc(-c2nc(C)oc2-c2cc(-c3cc(F)c(CO)c(S(C)(=O)=O)c3)ccc2-n2cc(Cl)c(C(F)(F)F)n2)cn1 [Example 428, (4′-(4-chloro-3-(trifluoromethyl)-1H-pyrazol-1-yl)-3-fluoro-3′-(4-(2-methoxypyrimidin-5-yl)-2-methyloxazol-5-yl)-5-(methylsulfonyl)-[1,1′-biphenyl]-4-yl)methanol] | 93 | 83 | 
11 | Cc1nc(-c2ccc(C(F)(F)F)cc2)c(-c2cc(-c3cc(F)c(CO)c(S(C)(=O)=O)c3)ccc2-n2cc(Cl)c(C(F)(F)F)n2)o1 [Example 438, (4′-(4-chloro-3-(trifluoromethyl)-1H-pyrazol-1-yl)-3-fluoro-3′-(2-methyl-4-(4-(trifluoromethyl)phenyl)oxazol-5-yl)-5-(methylsulfonyl)-[1,1′-biphenyl]-4-yl)methanol] | 128 | 70 | 
12 | Cc1nc(-c2ccc3c(c2)OC(F)(F)O3)c(-c2cc(-c3cc(F)c(CO)c(S(C)(=O)=O)c3)ccc2-c2cc(C(F)(F)C(=O)NC(C)(C)C)nn2C)o1 [Example 84, N-tert-butyl-2-(5-(3-(4-(2,2-difluorobenzo[d][1,3]dioxol-5-yl)-2-methyloxazol-5-yl)-3′-fluoro-4′-(hydroxymethyl)-5′-(methylsulfonyl)biphenyl-4-yl)-1-methyl-1H-pyrazol-3-yl)-2,2-difluoroacetamide] | 61 | 26 | 

Continued by falling EC50, values first:

Row | EC50 [nM] | Emax [%] | LXRbeta % EFFICACY [%] | SMILES
13 | 1440 | 40 |  | Cc1nc(-c2ccc(OC(F)(F)F)cc2)c(-c2cc(-c3cccc(S(C)(=O)=O)c3)ccc2-n2ccc(CO)n2)o1 [Example 321, (1-(3-(2-methyl-4-(4-(trifluoromethoxy)phenyl)oxazol-5-yl)-3′-(methylsulfonyl)biphenyl-4-yl)-1H-pyrazol-3-yl)methanol]
14 | 317 | 42 |  | Cc1nc(-c2ccc(OC(F)(F)F)cc2)c(-c2cc(-c3cc(F)c(CO)c(S(C)(=O)=O)c3)ccc2-c2cc(C(F)(F)C(N)=O)nn2C)o1 [Example 70, 2,2-difluoro-2-(5-(3′-fluoro-4′-(hydroxymethyl)-3-(2-methyl-4-(4-(trifluoromethoxy)phenyl)oxazol-5-yl)-5′-(methylsulfonyl)biphenyl-4-yl)-1-methyl-1H-pyrazol-3-yl)acetamide]
15 | 284 | 51 |  | Cc1nc(-c2ccc3c(c2)OC(F)(F)O3)c(-c2cc(-c3cccc(S(C)(=O)=O)c3)ccc2-c2cc(C(=O)NCC(F)(F)F)nn2C)o1 [Example 111, 5-(3-(4-(2,2-difluorobenzo[d][1,3]dioxol-5-yl)-2-methyloxazol-5-yl)-3′-(methylsulfonyl)-[1,1′-biphenyl]-4-yl)-1-methyl-N-(2,2,2-trifluoroethyl)-1H-pyrazole-3-carboxamide]
16 | 227 |  | 96 | Cc1nc(-c2ccc3c(c2)OC(F)(F)O3)c(-c2cc(-c3cccc(S(C)(=O)=O)c3)ccc2-c2cc(C(C)O)nn2C)o1 (stereo not drawn) [Example 102]
17 | 26 |  | 99 | Cc1nc(-c2ccc3c(c2)OC(F)(F)O3)c(-c2cc(-c3cccc(S(C)(=O)=O)c3)ccc2-c2cc(C(C)C#N)nn2C)o1 (stereo not drawn) [Example 116, 2-(5-(3-(4-(2,2-difluorobenzo[d][1,3]dioxol-5-yl)-2-methyloxazol-5-yl)-3′-(methylsulfonyl)-[1,1′-biphenyl]-4-yl)-1-methyl-1H-pyrazol-3-yl)propanenitrile]
18 | 6 | 76 |  | Cc1nc(-c2ccc3c(c2)OC(F)(F)O3)c(-c2cc(-c3cc(F)c(CO)c(S(C)(=O)=O)c3)ccc2-c2cc([C@H](C)C#N)nn2C)o1 [Example 59, (S)-2-(5-(3-(4-(2,2-difluorobenzo[d][1,3]dioxol-5-yl)-2-methyloxazol-5-yl)-3′-fluoro-4′-(hydroxymethyl)-5′-(methylsulfonyl)-[1,1′-biphenyl]-4-yl)-1-methyl-1H-pyrazol-3-yl)propanenitrile]
